Measured values taken from patent US20130306000A1, “Aflaxtoxin Resistant Poultry” (priority 2012, published 2013).

Tests used:
[1] = test system: Turkey liver cytosolic GSTs; assay: Turkey liver cytosolic GST activity toward substrates; type: biochemical; details: turkey liver cytosol
[2] = test system: BHA-induced mouse liver; type: in vitro ADME

Molecule	activity of turkey liver cytosolic GSTs toward the substrate [1]	AFB1 detoxification, specific enzyme activity [2] [nmol/min per mg protein]
O=[N+]([O-])c1ccc(Cl)c(Cl)c1 [DCNB, dichlornitrobenzene]	active	
aflatoxin B1 [AFB1]		0.426 ± 0.04
exo-AFB1-8,9-epoxide [AFBO]	not toward	
O=[N+]([O-])c1ccc(Cl)c([N+](=O)[O-])c1 [CDNB, chlorodinitrobenezene]	active	
